Experimental data: ChEMBL document CHEMBL1135808, “A new type of mixed anhydride and its applications to the synthesis of 7-substituted 8-chloro-5,5-dioxoimidazo[1,2-b][1,4,2]benzodithiazines with in vitro antitumor activity” (2002)

Legend:
BT-549 = test: In vitro total growth inhibition against breast cancer BT 549 cell line was reported.; assay type: functional; conditions: Homo sapiens, read-out: Log TGI (converted)
Hs-578T = test: In vitro growth inhibition against breast cancer HS 578T cell line was reported.; assay type: functional; conditions: Homo sapiens
MDA-MB-231 = test: In vitro total growth inhibition against breast cancer MDA-MB-231/ATCC cell lines was reported.; assay type: functional; conditions: Homo sapiens, read-out: Log TGI (converted)
MDA-N = test: In vitro total growth inhibition against breast cancer MDA-N cell lines was reported.; assay type: functional; conditions: Homo sapiens, read-out: Log TGI (converted)
NCI/ADR-RES = test: In vitro total growth inhibition against breast cancer NCI/ADR-RES cell lines was reported.; assay type: functional; conditions: Homo sapiens, read-out: Log TGI (converted)
T47D = test: In vitro growth inhibition against breast cancer […] cell line was reported.; assay type: functional; conditions: Homo sapiens
COLO 205 = test: Log of molar concentration leading to 50% cell death against colon cancer COLO 205 cell line was reported; assay type: functional; conditions: Homo sapiens, read-out: Log LC50 (the source's name) (converted)
HCT-116 = test: In vitro total growth inhibition against colon cancer HCT116 cell lines was reported.; assay type: functional; conditions: Homo sapiens, read-out: Log TGI (converted)
SF-295 [1] = test: In vitro growth inhibition against CNS cancer SF-295 cell line was reported.; assay type: functional; conditions: Homo sapiens
SF-295 [2] = test: Log of molar concentration leading to 50% cell death against CNS cancer SF-295 cell line was reported; assay type: functional; conditions: Homo sapiens, read-out: Log LC50 (the source's name) (converted)
SF-539 = test: In vitro growth inhibition against CNS cancer SF-539 cell line was reported.; assay type: functional; conditions: Homo sapiens
SNB-19 = test: In vitro total growth inhibition against CNS cancer SNB-19 cell lines was reported.; assay type: functional; conditions: Homo sapiens, read-out: Log TGI (converted)
SNB-75 = test: In vitro total growth inhibition against CNS cancer SNB-75 cell lines was reported.; assay type: functional; conditions: Homo sapiens, read-out: Log TGI (converted)
U-251 = test: In vitro total growth inhibition against CNS cancer U251 cell lines was reported.; assay type: functional; conditions: Homo sapiens, read-out: Log TGI (converted)
HCT-15 = test: In vitro total growth inhibition against colon cancer HCT-15 cell lines was reported.; assay type: functional; conditions: Homo sapiens, read-out: Log TGI (converted)
KM12 = test: In vitro total growth inhibition against colon cancer KM12 cell lines was reported.; assay type: functional; conditions: Homo sapiens, read-out: Log TGI (converted)
Tumor Cell line [3] = test: In vitro inhibition of 50% cell growth was reported as log of molar concentration for 60 cell lines.; assay type: functional; conditions: Homo sapiens
Tumor Cell line [4] = test: In vitro total growth inhibition for 50 cell lines was reported as log of molar concentration; assay type: functional, Homo sapiens
CCRF-CEM [5] = test: In vitro growth inhibition against leukemia CCRF-CEM cell line was reported.; assay type: functional; conditions: Homo sapiens
CCRF-CEM [6] = test: In vitro total growth inhibition against leukemia CCRF cell lines was reported.; assay type: functional; conditions: Homo sapiens, read-out: Log TGI (converted)
HL-60 = test: In vitro total growth inhibition against leukemia HL-60(TB) cell lines was reported.; assay type: functional; conditions: Homo sapiens, read-out: Log TGI (converted)
SR = test: In vitro growth inhibition against leukemia SR cell line was reported.; assay type: functional; conditions: Homo sapiens
MOLT-4 = test: In vitro total growth inhibition against leukemia MOLT-4 cell lines was reported.; assay type: functional; conditions: Homo sapiens, read-out: Log TGI (converted)
SK-MEL-5 = test: In vitro growth inhibition against melanoma SK-MEL-5 cell line was reported.; assay type: functional; conditions: Homo sapiens
UACC-257 = test: In vitro total growth inhibition against melanoma UACC-257 cell line was reported.; assay type: functional; conditions: Homo sapiens
EKVX = test: Log of molar concentration leading to 50% cell death against non-small-cell lung cancer EKVX cell line was reported; assay type: functional; conditions: Homo sapiens, read-out: Log LC50 (the source's name) (converted)
HOP-62 [7] = test: Log of molar concentration leading to 50% cell death against non-small-cell lung cancer HOP-62 cell line was reported; assay type: functional; conditions: Homo sapiens, read-out: Log LC50 (the source's name) (converted)
HOP-62 [8] = test: In vitro total growth inhibition against non-small-cell lung cancer HOP-62 cell lines was reported.; assay type: functional; conditions: Homo sapiens, read-out: Log TGI (converted)
NCI-H322M = test: Log of molar concentration leading to 50% cell death against non-small-cell lung cancer NCI-H322M cell line was reported; assay type: functional; conditions: Homo sapiens, read-out: Log LC50 (the source's name) (converted)

## Cc1ccc2cccc(NC(=O)c3cc4c(cc3Cl)Sc3nccn3S4(=O)=O)c2n1
BT-549
  TGI: 60.3 µM
Hs-578T
  GI50: 13.5 µM
MDA-MB-231
  TGI: 24 µM
MDA-N
  TGI: 91.2 µM
NCI/ADR-RES
  TGI: 41.7 µM
T47D
  GI50: 2.4 µM
COLO 205
  CC50: 55 µM
HCT-116
  TGI: 17 µM
SF-295 [1]
  GI50: 11.5 µM
SF-295 [2]
  CC50: 53.7 µM
SF-539
  GI50: 1.82 µM
SNB-19
  TGI: 33.9 µM
SNB-75
  TGI: 30.9 µM
U-251
  TGI: 14.5 µM
HCT-15
  TGI: 27.5 µM
KM12
  TGI: 19.1 µM
Tumor Cell line [3]
  GI50: 97.7 µM
Tumor Cell line [4]
  Log GTI: -4.01
CCRF-CEM [5]
  GI50: 2.51 µM
CCRF-CEM [6]
  TGI: 17 µM
HL-60
  TGI: 0.01 µM
SR
  GI50: 2.24 µM
MOLT-4
  TGI: 20 µM
SK-MEL-5
  GI50: 10.7 µM
UACC-257
  GI50: 13.8 µM
EKVX
  CC50: 77.6 µM
HOP-62 [7]
  CC50: 39.8 µM
HOP-62 [8]
  TGI: 16.2 µM
NCI-H322M
  CC50: 50.1 µM
